Where two headings read alike, the source gives them in different places.
System: T1, Glucose-6-phosphate dehydrogenase (G6PDH)
T1 construct: gene G6PD; native enzyme in crude hepatopancreas extract of aerobic control animals, not purified; mixture of low- and high-phosphate forms
Assay: NADPH production at […] nm, microplate reader
Type: biochemical, Faxonius virilis
Settings: untreated extract of aerobic control animals, 50 mM imidazole, pH 7.0, 22 °C, read-out: Control K m

Question: Which Km (NADP+ constant) does the source give for `O=P(O)(O)OC[C@H]1OC(O)[C@H](O)[C@@H](O)[C@@H]1O` (some centres unmarked) [G6P] here?
Answer: Its Km is 130 ± 16 µM.

Question: How did the Km (G6P constant) turn out when `NC(=O)c1ccc[n+]([C@@H]2O[C@H](COP(=O)(O)OP(=O)(O)OC[C@H]3O[C@@H](n4cnc5c(N)ncnc54)[C@H](OP(=O)(O)O)[C@@H]3O)[C@@H](O)[C@H]2O)c1` [NADP^+] was run?
Answer: The Km was 150 ± 8 µM.

Source: publication PMC3195688, “Glucose-6-Phosphate Dehydrogenase Regulation in Anoxia Tolerance of the Freshwater Crayfish Orconectes virilis” (Enzyme Research, 2011)
